The source made the active and inactive calls. The rule behind the calls is not given here.
What was measured:
[1] = biological target: Intercellular adhesion molecule 1 (Homo sapiens) (UniProt P05362); experiment: Inhibition of sICAM1/LFA1 interaction-mediated human THP1 cell adhesion at 25 ug/mL after 1 hr by ELISA; conditions: THP-1
[2] = biological target: Intercellular adhesion molecule 1 (Homo sapiens) (UniProt P05362); experiment: Inhibition of sICAM1/LFA1 interaction-mediated human THP1 cell adhesion at 3.13 ug/mL after 1 hr by ELISA; type: cell-based; conditions: THP-1
[3] = biological target: Intercellular adhesion molecule 1 (Homo sapiens) (UniProt P05362); experiment: Inhibition of sICAM1/LFA1 interaction-mediated human THP1 cell adhesion at 6.25 ug/mL after 1 hr by ELISA; type: cell-based; conditions: THP-1
THP-1 = experiment: Cytotoxicity against human THP1 cells assessed as cell viability at 3.13 to 25.00 ug/mL by MTT assay; type: cell-based
Mus musculus = organism: Mus musculus; experiment: Antiinflammatory activity in mouse; type: functional, organism-based
[4] = biological target: Intercellular adhesion molecule 1 (Homo sapiens) (UniProt P05362); experiment: Inhibition of sICAM1/LFA1 interaction-mediated human THP1 cell adhesion at 12.50 ug/mL after 1 hr by ELISA; type: cell-based; conditions: THP-1

Chain of Intercellular adhesion molecule 1 (Homo sapiens) (P05362 whole entry): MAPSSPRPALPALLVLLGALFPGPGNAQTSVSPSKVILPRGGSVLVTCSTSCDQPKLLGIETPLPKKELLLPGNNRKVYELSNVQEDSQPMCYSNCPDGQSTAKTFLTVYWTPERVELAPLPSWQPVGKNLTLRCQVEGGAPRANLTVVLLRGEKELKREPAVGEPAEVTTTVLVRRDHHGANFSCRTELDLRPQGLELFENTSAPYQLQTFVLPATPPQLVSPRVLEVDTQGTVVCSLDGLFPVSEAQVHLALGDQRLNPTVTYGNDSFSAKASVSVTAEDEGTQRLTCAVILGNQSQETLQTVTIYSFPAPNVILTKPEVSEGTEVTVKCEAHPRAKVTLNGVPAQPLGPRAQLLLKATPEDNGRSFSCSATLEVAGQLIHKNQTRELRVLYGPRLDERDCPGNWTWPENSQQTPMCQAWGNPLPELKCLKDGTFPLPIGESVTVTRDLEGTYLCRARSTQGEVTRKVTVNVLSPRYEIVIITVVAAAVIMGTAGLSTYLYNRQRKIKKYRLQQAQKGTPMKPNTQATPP

O=C(/C=C/C=C\CC/C=C/c1ccc2c(c1)OCO2)N1CCCCC1
inhibition [1]: 92.1% | Activity [2]: inactive | inhibition [3]: 13.1% | Activity (THP-1): Non-toxic | Activity (Mus musculus): Active | inhibition [4]: 58.4%

CC[C@H](C)C(=O)O[C@H]1C[C@@H](C)C=C2C=C[C@H](C)[C@H](CC[C@@H]3C[C@@H](O)CC(=O)O3)[C@H]21
Activity [1]: inactive | Activity [2]: inactive | inhibition [3]: 37.7% | inhibition [4]: 61.4%

O=C(/C=C/C=C/CC/C=C/c1ccc2c(c1)OCO2)N1CCCCC1 [DEHYDROPIPERNOLINE]
inhibition [1]: 73.4% | inhibition [2]: 30.1% | inhibition [3]: 52.5% | Activity (THP-1): Non-toxic | Activity (Mus musculus): Active | inhibition [4]: 57.7%

CC(C)CNC(=O)/C=C/C=C/CCCCCC/C=C/c1ccc2c(c1)OCO2 [GUINEENSINE]
inhibition [1]: 36.8% | Activity [2]: inactive | inhibition [3]: 14.9% | Activity (THP-1): Non-toxic | Activity (Mus musculus): Active | inhibition [4]: 31.7%

CCCCC/C=C/C=C/C(=O)NCC(C)C [PELLITORIN]
inhibition [1]: 80.6% | inhibition [2]: 11.3% | inhibition [3]: 16.5% | Activity (THP-1): Non-toxic | Activity (Mus musculus): Active | inhibition [4]: 46.4%

CC(C)CNC(=O)/C=C/CCCCCC/C=C/c1ccc2c(c1)OCO2 [PIPERCHABAMIDE D]
inhibition [1]: 42.6% | inhibition [2]: 15.6% | inhibition [3]: 20.9% | Activity (THP-1): Non-toxic | Activity (Mus musculus): Active | inhibition [4]: 26.9%

O=C(/C=C/CCCC/C=C/c1ccc2c(c1)OCO2)N1CCCCC1 [PIPERNONALINE]
inhibition [1]: 93.8% | inhibition [2]: 12.5% | inhibition [3]: 36.8% | Activity (THP-1): Non-toxic | Activity (Mus musculus): Active | inhibition [4]: 70.2%

O=C(CCCCCC/C=C/c1ccc2c(c1)OCO2)N1CCCCC1 [PIPERROLEIN B]
inhibition [1]: 67.6% | inhibition [2]: 16.2% | inhibition [3]: 28.5% | Activity (THP-1): Non-toxic | Activity (Mus musculus): Active | inhibition [4]: 46.5%

CC(C)CNC(=O)/C=C/CCCC/C=C/c1ccc2c(c1)OCO2 [RETROFRACTAMIDE C]
inhibition [1]: 36% | Activity [2]: inactive | inhibition [3]: 29.9% | Activity (THP-1): Non-toxic | Activity (Mus musculus): Active | inhibition [4]: 35.9%

Source: ChEMBL document CHEMBL1156593, “Alkamides from the fruits of Piper longum and Piper nigrum displaying potent cell adhesion inhibition” (Bioorg Med Chem Lett, 2008)
